Test results from patent US12643881B2, “Bicyclic amine CDK12 inhibitors” (Incyte Corporation, priority 2021, dated 2026).

Molecular target: T1, CDK12 complexed with Cyclin K (Homo sapiens, UniProt Q9NYV4)
T1 construct: GST (N)
Experiment: Alternative CDK Enzymatic Assays (HTRF, pre-incubation with compounds and 1 mM ATP), Example A2
Type: biochemical
Details: enzyme pre-incubated with compounds and 1 mM ATP for 60 minutes; reaction 120 minutes at 25° C.
Summary of the method: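 GST-tagged human CDK12 co-expressed with full-length Cyclin K (baculovirus), pre-incubated 60 min with compounds and 1 mM ATP; reaction started with 1 mM ATP and 50 nM ULight-4E-BP1 peptide, 120 min at 25 °C, pH 7.5 HEPES. EDTA-stopped, Eu-anti-phospho-4E-BP1 HTRF (665/620 nm); IC50 from 3- or 4-parameter fit vs DMSO/no-enzyme controls.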

T1 sequence (Q9NYV4 whole entry): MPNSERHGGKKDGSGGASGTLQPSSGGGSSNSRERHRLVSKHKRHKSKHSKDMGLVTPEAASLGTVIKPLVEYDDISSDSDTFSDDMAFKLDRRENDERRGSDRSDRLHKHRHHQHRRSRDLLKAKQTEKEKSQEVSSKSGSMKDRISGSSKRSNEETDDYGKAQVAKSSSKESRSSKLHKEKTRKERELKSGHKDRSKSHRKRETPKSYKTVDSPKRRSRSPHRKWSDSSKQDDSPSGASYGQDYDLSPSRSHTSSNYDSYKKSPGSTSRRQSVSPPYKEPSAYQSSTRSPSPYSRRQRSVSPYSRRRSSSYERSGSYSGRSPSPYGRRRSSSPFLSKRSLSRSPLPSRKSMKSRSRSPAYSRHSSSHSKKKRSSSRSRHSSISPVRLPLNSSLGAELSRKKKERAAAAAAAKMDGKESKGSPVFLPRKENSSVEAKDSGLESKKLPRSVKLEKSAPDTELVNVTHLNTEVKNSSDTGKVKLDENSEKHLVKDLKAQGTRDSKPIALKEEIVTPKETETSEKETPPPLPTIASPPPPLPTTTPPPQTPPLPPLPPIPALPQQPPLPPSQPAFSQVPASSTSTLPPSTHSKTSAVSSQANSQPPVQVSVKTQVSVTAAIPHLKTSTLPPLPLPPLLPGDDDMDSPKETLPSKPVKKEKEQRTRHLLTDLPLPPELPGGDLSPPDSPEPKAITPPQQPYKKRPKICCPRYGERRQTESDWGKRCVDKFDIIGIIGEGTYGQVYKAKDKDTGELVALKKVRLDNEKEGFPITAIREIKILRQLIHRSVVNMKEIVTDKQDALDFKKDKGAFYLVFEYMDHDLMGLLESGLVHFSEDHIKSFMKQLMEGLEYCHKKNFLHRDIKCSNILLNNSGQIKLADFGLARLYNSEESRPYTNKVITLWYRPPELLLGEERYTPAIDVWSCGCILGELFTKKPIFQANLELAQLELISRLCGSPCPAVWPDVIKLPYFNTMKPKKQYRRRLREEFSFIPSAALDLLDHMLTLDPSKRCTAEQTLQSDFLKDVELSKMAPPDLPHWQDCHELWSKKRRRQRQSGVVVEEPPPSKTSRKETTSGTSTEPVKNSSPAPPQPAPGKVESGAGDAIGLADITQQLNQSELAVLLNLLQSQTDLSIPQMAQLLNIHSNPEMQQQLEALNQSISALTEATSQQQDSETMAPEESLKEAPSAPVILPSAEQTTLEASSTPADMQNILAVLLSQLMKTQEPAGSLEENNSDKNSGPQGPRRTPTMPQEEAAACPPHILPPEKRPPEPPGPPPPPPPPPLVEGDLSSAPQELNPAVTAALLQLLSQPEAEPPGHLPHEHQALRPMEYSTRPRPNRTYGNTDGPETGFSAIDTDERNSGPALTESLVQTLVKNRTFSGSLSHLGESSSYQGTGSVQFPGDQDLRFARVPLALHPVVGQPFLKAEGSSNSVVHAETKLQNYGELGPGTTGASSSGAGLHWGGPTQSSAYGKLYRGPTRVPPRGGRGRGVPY
T1 sequence (O75909 whole entry partner): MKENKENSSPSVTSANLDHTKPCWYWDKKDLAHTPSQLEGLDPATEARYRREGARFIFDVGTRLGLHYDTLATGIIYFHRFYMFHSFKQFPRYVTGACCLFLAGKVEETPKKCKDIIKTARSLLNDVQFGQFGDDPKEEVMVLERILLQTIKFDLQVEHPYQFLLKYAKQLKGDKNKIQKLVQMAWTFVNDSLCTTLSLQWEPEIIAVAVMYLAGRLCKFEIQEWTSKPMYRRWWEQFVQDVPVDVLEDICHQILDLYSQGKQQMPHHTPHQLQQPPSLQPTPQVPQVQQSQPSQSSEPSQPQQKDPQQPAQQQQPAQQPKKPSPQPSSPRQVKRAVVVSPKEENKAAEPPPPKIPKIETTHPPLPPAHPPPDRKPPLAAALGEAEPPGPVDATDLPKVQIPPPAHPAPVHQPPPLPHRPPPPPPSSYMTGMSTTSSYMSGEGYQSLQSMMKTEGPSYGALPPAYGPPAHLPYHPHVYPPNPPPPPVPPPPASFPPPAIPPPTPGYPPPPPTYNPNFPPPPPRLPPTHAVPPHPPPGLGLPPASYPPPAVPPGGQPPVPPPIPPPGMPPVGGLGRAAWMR

Molecule	IC50
Cc1cc2c(cc1NC(=O)/C=C/CN(C)C)nc(N1C[C@H](F)C[C@@H](Nc3ncc(C(F)(F)F)cn3)C1)n2C [Example 120, (E)-4-(Dimethylamino)-N-(2-((3R,5R)-3-fluoro-5-((5-(trifluoromethyl)pyrimidin-2-yl)amino)piperidin-1-yl)-1,6-dimethyl-1H-benzo[d]imidazol-5-yl)but-2-enamide]	> 500 nM
N-(2-((3R,5R)-3-Hydroxy-5-((5-(trifluoromethyl)pyrimidin-2-yl)amino)piperi-dine-1-yl)-1,6-dimethyl-1H-benzo[d]imidazol-5-yl)acrylamide [Example 94]	50 to 500 nM
C=CC(=O)Nc1cc2nc(N3C[C@H](F)C[C@@H](Nc4ncc(C(F)(F)F)cn4)C3)n(C)c2cc1N1CCOCC1 [Example 139, N-(2-((3R,5R)-3-Fluoro-5-((5-(trifluoromethyl)pyrimidin-2-yl)amino)piperidin-1-yl)-1-methyl-6-morpholino-1H-benzo[d]imidazol-5-yl)acrylamide]	50 to 500 nM
C=CC(=O)Nc1cc2nc(N3C[C@H](F)C[C@@H](Nc4ncc(C(F)(F)F)cn4)C3)n(C)c2cc1Cl [Example 134, N-(6-Chloro-2-((3R,5R)-3-fluoro-5-((5-(trifluoromethyl)pyrimidin-2-yl)amino)piperidin-1-yl)-1-methyl-1H-benzo[d]imidazol-5-yl)acrylamide]	< 50 nM
C=CC(=O)Nc1cc2nc(N3CCC[C@@H](Nc4ncc(C(F)(F)F)cn4)C3)n(C)c2cc1CC [Example 153, (R)—N-(6-Ethyl-1-methyl-2-(3-((5-(trifluoromethyl)pyrimidin-2-yl)amino)piperidin-1-yl)-1H-benzo[d]imidazol-5-yl)acrylamide]	< 50 nM
C=CC(=O)Nc1ccc2c(c1)nc(N1C[C@H](Nc3ncc(C(F)(F)F)cn3)CC(F)(F)C1)n2C [Example 124, (R)—N-(2-(3,3-Difluoro-5-((5-(trifluoromethyl)pyrimidin-2-yl)amino)piperidin-1-yl)-1-methyl-1H-benzo[d]imidazol-5-yl)acrylamide]	< 50 nM
Cc1cc2c(cc1NC(=O)/C=C/C(C)(C)O)nc(N1C[C@H](F)C[C@@H](Nc3ncc(C(F)(F)F)cn3)C1)n2C [Example 112, (E)-N-(2-((3R,5R)-3-Fluoro-5-((5-(trifluoromethyl)pyrimidin-2-yl)amino)piperidin-1-yl)-1,6-dimethyl-1H-benzo[d]imidazol-5-yl)-4-hydroxy-4-methylpent-2-enamide]	> 500 nM
C=CC(=O)N(c1ccc2c(c1)nc(N1CCC[C@@H](Nc3ncc(C(F)(F)F)cn3)C1)n2C)C1CCOC1 (stereo partly drawn) [Example 165, N-(1-Methyl-2-((R)-3-((5-(trifluoromethyl)pyrimidin-2-yl)amino)piperidin-1-yl)-1H-benzo[d]imidazol-5-yl)-N-(tetrahydrofuran-3-yl)acrylamide]	< 50 nM
C=CC(=O)Nc1cc2nc(N3CCC[C@@H](Nc4ncc(C(F)(F)F)cn4)C3)n(C)c2cc1C [Example 102, (R)—N-(1,6-Dimethyl-2-(3-((5-(trifluoromethyl)pyrimidin-2-yl)amino)piperidin-1-yl)-1H-benzo[d]imidazol-5-yl)acrylamide]	< 50 nM

Further lines, results first:

IC50	Molecule
< 50 nM	C=CC(=O)Nc1ccc2c(c1)nc(N1CCC(F)(F)[C@@H](Nc3ncc(C#N)cn3)C1)n2C [Example 127, (S)—N-(2-(3-((5-Cyanopyrimidin-2-yl)amino)-4,4-difluoropiperidin-1-yl)-1-methyl-1H-benzo[d]imidazol-5-yl)acrylamide]
< 50 nM	C=CC(=O)Nc1cc2nc(N3C[C@H](F)C[C@@H](Nc4ncc(C#N)c(CC)n4)C3)n(C)c2cc1C [Example 161, N-(2-((3R,5R)-3-((5-Cyano-4-ethylpyrimidin-2-yl)amino)-5-fluoropiperidin-1-yl)-1,6-dimethyl-1H-benzo[d]imidazol-5-yl)acrylamide]
< 50 nM	C=CC(=O)Nc1ccc2c(c1)nc(N1CCC[C@@H](Nc3ncc(C(F)(F)F)c(N4CCN(C)CC4)n3)C1)n2C [Example 152, (R)—N-(1-Methyl-2-(3-((4-(4-methylpiperazin-1-yl)-5-(trifluoromethyl)pyrimidin-2-yl)amino)piperidin-1-yl)-1H-benzo[d]imidazol-5-yl)acrylamide]
< 50 nM	C=CC(=O)Nc1cc2nc(N3C[C@H](F)C[C@@H](Nc4ncc(C(F)(F)F)cn4)C3)n(C)c2cc1C#N [Example 140, N-(6-Cyano-2-((3R,5R)-3-fluoro-5-((5-(trifluoromethyl)pyrimidin-2-yl)amino)piperidin-1-yl)-1-methyl-1H-benzo[d]imidazol-5-yl)acrylamide]
< 50 nM	C=CC(=O)Nc1cc2nc(N3CCC[C@@H](Nc4ncc(C(F)(F)F)cn4)C3)n(C)c2cc1C(C)C [Example 154, (R)—N-(6-Isopropyl-1-methyl-2-(3-((5-(trifluoromethyl)pyrimidin-2-yl)amino)piperidin-1-yl)-1H-benzo[d]imidazol-5-yl)acrylamide]
